Data published in doi:10.1101/2023.11.24.568596v1 (biorxiv, 2023).

Assays:
Details in all cases: binder
MST2 = biological target: T1, MST2 (Homo sapiens, UniProt Q13188)
T1 sequence (Q13188 1-491): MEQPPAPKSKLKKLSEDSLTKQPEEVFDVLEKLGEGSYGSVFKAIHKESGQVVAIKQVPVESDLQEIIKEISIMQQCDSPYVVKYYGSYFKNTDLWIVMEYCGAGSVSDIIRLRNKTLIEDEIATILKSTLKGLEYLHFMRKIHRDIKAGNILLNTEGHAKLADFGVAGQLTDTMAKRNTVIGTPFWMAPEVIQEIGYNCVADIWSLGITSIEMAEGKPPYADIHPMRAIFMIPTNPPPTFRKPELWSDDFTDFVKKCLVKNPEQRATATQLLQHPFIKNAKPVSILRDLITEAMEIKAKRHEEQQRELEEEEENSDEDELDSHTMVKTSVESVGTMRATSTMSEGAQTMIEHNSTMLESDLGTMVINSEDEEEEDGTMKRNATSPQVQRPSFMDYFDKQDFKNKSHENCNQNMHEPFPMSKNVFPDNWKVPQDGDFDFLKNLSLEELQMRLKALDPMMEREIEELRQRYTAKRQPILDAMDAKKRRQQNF

MST3 = MST3 (Homo sapiens, UniProt Q9Y6E0)
MST1 = biological target: T2, MST1 (Homo sapiens, UniProt Q13043)
T2 sequence (Q13043 1-487): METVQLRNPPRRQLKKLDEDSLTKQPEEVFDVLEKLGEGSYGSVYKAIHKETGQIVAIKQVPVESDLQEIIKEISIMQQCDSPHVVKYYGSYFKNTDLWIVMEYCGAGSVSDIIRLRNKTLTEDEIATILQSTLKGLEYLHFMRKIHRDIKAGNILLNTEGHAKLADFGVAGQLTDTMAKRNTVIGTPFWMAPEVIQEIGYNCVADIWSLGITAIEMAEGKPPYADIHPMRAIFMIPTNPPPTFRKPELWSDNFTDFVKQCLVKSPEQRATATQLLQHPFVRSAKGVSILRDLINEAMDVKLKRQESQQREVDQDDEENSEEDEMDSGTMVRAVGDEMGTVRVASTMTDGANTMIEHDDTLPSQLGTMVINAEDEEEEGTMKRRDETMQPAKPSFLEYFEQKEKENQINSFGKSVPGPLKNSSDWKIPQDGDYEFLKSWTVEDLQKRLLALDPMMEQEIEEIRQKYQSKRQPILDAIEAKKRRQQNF

MST4 = MST4 (Homo sapiens, UniProt Q9P289)
PAK1 = PAK1 (Homo sapiens, UniProt Q13153)
Chain of PAK1 (Q13153 whole entry): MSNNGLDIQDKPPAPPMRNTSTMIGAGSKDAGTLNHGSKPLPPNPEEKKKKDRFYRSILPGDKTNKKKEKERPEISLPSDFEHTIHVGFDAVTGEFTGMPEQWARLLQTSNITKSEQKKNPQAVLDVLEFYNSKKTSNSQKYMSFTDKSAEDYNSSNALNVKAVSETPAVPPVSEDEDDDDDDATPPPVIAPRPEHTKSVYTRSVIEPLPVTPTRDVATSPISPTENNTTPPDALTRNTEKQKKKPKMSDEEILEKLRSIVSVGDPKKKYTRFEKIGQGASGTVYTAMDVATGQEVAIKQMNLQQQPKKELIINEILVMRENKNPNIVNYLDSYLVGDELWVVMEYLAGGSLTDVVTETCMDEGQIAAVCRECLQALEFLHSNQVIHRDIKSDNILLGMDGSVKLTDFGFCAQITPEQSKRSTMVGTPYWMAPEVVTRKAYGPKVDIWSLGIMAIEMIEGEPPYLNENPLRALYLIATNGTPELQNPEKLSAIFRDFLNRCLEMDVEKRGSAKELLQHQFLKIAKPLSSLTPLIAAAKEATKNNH

Chain of MST3 (Q9Y6E0 whole entry): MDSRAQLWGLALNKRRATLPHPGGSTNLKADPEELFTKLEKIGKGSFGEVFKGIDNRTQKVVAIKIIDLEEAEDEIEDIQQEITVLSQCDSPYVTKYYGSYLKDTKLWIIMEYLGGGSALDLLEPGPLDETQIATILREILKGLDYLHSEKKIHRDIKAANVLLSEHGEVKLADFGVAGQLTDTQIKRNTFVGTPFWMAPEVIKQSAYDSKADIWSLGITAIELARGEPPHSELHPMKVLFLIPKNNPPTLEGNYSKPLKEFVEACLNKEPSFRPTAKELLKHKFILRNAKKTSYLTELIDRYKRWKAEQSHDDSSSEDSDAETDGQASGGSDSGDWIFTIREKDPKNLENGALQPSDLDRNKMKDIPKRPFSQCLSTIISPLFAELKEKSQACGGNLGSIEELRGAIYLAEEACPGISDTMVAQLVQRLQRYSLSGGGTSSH
Chain of MST4 (Q9P289 whole entry): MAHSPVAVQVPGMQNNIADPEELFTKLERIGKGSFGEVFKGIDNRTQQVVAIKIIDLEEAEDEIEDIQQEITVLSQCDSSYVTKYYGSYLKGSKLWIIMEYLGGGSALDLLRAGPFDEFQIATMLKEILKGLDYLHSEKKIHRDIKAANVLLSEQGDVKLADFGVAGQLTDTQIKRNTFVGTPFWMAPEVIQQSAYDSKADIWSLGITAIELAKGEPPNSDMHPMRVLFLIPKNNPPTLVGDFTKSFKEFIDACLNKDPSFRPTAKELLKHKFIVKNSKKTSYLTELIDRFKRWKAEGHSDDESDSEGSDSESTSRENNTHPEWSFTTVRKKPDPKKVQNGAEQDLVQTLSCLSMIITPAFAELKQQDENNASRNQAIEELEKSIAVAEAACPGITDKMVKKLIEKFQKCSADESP

| Structure (SMILES) | dTm MST2 (MST2) | dTm MST3 (MST3) | dTm MST1 (MST1) | dTm MST4 (MST4) | dTm PAK1 (PAK1) |
| --- | --- | --- | --- | --- | --- |
| CNc1ncc2cc(-c3ccc(-c4cccc(C)n4)cc3Cl)c(O)nc2n1 [compound 9, 6-(2-Chloro-4-(6-methylpyridin-2-yl)phenyl)-2-(methylamino)pyrido[2,3-d]pyrimidin-7-ol] | 0.3 °C | 0.6 °C |  |  |  |
| CNc1ncc2cc(-c3ccc(-c4cccc(C)n4)cc3Cl)c(=O)n(C)c2n1 [compound 10, 6-(2-Chloro-4-(6-methylpyridin-2-yl)phenyl)-8-methyl-2-(methylamino)pyrido[2,3-d]pyrimidin-7(8H)-one] | 1.3 °C | 3.7 °C | 1.6 °C | 1.6 °C | 3.2 °C |
| CNc1ncc2cc(-c3ccc(-c4cccc(C)n4)cc3Cl)c(=O)n(CCOC)c2n1 [compound 11, 6-(2-Chloro-4-(6-methylpyridin-2-yl)phenyl)-8-(2-methoxyethyl)-2-(methylamino)-pyrido[2,3-d]pyrimidin-7(8H)-one] | 5.0 °C | 6.7 °C | 3.9 °C | 4.4 °C | 4.1 °C |
| CNc1ncc2cc(-c3ccc(-c4cccc(C)n4)cc3Cl)c(=O)n(CCCOC)c2n1 [compound 12, 6-(2-Chloro-4-(6-methylpyridin-2-yl)phenyl)-8-(3-methoxypropyl)-2-(methylamino)-pyrido[2,3-d]pyrimidin-7(8H)-one] | 6.2 °C | 5.1 °C | 3.6 °C | 4.1 °C | 5.1 °C |
| CNc1ncc2cc(-c3ccc(-c4cccc(C)n4)cc3Cl)c(=O)n(CCCCOC)c2n1 [compound 13, 6-(2-Chloro-4-(6-methylpyridin-2-yl)phenyl)-8-(4-methoxybutyl)-2-(methylamino)-pyrido[2,3-d]pyrimidin-7(8H)-one] | 8.6 °C | 6.2 °C | 3.3 °C | 3.6 °C | 4.8 °C |
| CNc1ncc2cc(-c3ccc(-c4cccc(C)n4)cc3Cl)c(=O)n(CCO)c2n1 [compound 14, 6-(2-Chloro-4-(6-methylpyridin-2-yl)phenyl)-8-(2-hydroxyethyl)-2-(methylamino)-pyrido[2,3-d]pyrimidin-7(8H)-one] | 9.0 °C | 7.8 °C | 4.0 °C | 5.8 °C | 5.0 °C |
| CNc1ncc2cc(-c3ccc(-c4cccc(C)n4)cc3Cl)c(=O)n(CCCO)c2n1 [compound 15, 6-(2-Chloro-4-(6-methylpyridin-2-yl)phenyl)-8-(3-hydroxypropyl)-2-(methylamino)-pyrido[2,3-d]pyrimidin-7(8H)-one] | 6.3 °C | 6.2 °C | 3.4 °C | 5.0 °C | 4.5 °C |
| CNc1ncc2cc(-c3ccc(-c4cccc(C)n4)cc3Cl)c(=O)n(CCCCO)c2n1 [compound 16, 6-(2-Chloro-4-(6-methylpyridin-2-yl)phenyl)-8-(4-hydroxybutyl)-2-(methylamino)-pyrido[2,3-d]pyrimidin-7(8H)-one] | 7.1 °C | 5.7 °C | 3.8 °C | 5.0 °C | 5.0 °C |
| CNc1ncc2cc(-c3ccc(-c4cccc(C)n4)cc3Cl)c(=O)n(CCCCCO)c2n1 [compound 17, 6-(2-Chloro-4-(6-methylpyridin-2-yl)phenyl)-8-(5-hydroxypentyl)-2-(methylamino)-pyrido[2,3-d]pyrimidin-7(8H)-one] | 6.1 °C | 6.6 °C | 2.4 °C | 5.5 °C | 6.0 °C |
| CNc1ncc2cc(-c3ccc(-c4cccc(C)n4)cc3Cl)c(=O)n(CCN)c2n1 [compound 18, 8-(2-Aminoethyl)-6-(2-chloro-4-(6-methylpyridin-2-yl)phenyl)-2-(methylamino)pyrido[2,3-d]pyrimidin-7(8H)-one] | 1.6 °C | 5.5 °C | 1.6 °C | 3.3 °C | 1.3 °C |
| CNc1ncc2cc(-c3ccc(-c4cccc(C)n4)cc3Cl)c(=O)n(CCCN)c2n1 [compound 19, 8-(3-Aminopropyl)-6-(2-chloro-4-(6-methylpyridin-2-yl)phenyl)-2-(methylamino)-pyrido[2,3-d]pyrimidin-7(8H)-one] | 4.4 °C | 7.9 °C | 2.8 °C | 7.2 °C | 4.0 °C |
| CNc1ncc2cc(-c3ccc(-c4cccc(C)n4)cc3Cl)c(=O)n(CCCCCN)c2n1 [compound 21, 8-(5-Aminopentyl)-6-(2-chloro-4-(6-methylpyridin-2-yl)phenyl)-2-(methylamino)-pyrido[2,3-d]pyrimidin-7(8H)-one] | 10.7 °C | 9.2 °C | 5.2 °C | 7.1 °C | 6.3 °C |
